From PubChem BioAssay AID1259407 (Chemical Carcinogenesis Research Information System (CCRIS), 2018)
Active and inactive are the calls of the source. The rule behind the calls is not given here.

System: CCRIS mutagenicity, Ames/micronucleus/aberration tests
Assay: CCRIS mutagenicity studies
Conditions: Test System: AMES SALMONELLA TYPHIMURIUM
[1] = Strain/Indicator: TA97, Metabolic Activation: RAT, LIVER, S-9, PHENOBARBITAL AND 5,6-BENZOFLAVONE, Method: PREINCUBATION
[2] = Strain/Indicator: TA98, Metabolic Activation: NONE, Method: PREINCUBATION
[3] = Strain/Indicator: TA98, Metabolic Activation: RAT, LIVER, S-9, PHENOBARBITAL AND 5,6-BENZOFLAVONE, Method: PREINCUBATION
[4] = Strain/Indicator: TA100, Metabolic Activation: RAT, LIVER, S-9, PHENOBARBITAL AND 5,6-BENZOFLAVONE, Method: PREINCUBATION
[5] = Strain/Indicator: TA2637, Metabolic Activation: NONE, Method: PREINCUBATION
[6] = Strain/Indicator: TA2637, Metabolic Activation: RAT, LIVER, S-9, PHENOBARBITAL AND 5,6-BENZOFLAVONE, Method: PREINCUBATION
[7] = Strain/Indicator: TA98, Metabolic Activation: NONE, Method: STANDARD PLATE
[8] = Strain/Indicator: TA100, Metabolic Activation: NONE, Method: STANDARD PLATE

Compound: O=c1ccc(=O)c2c(=O)c(Cl)c(Cl)c(=O)c1=2
- mutagenic call (Strain/Indicator: TA97, Metabolic Activation: NONE, Method: PREINCUBATION): inactive; negative
- mutagenic call [1]: active; positive
- mutagenic call [2]: inactive; negative
- mutagenic call [3]: inactive; negative
- mutagenic call (Strain/Indicator: TA100, Metabolic Activation: NONE, Method: PREINCUBATION): inactive; negative
- mutagenic call [4]: inactive; negative
- mutagenic call (Strain/Indicator: TA102, Metabolic Activation: NONE, Method: PREINCUBATION): active; positive
- mutagenic call (Strain/Indicator: TA102, Metabolic Activation: RAT, LIVER, S-9, PHENOBARBITAL AND 5,6-BENZOFLAVONE, Method: PREINCUBATION): active; positive
- mutagenic call (Strain/Indicator: TA104, Metabolic Activation: NONE, Method: PREINCUBATION): active; positive
- mutagenic call (Strain/Indicator: TA104, Metabolic Activation: RAT, LIVER, S-9, PHENOBARBITAL AND 5,6-BENZOFLAVONE, Method: PREINCUBATION): active; positive
- mutagenic call (Strain/Indicator: TA1535, Metabolic Activation: NONE, Method: PREINCUBATION): inactive; negative
- mutagenic call (Strain/Indicator: TA1535, Metabolic Activation: RAT, LIVER, S-9, PHENOBARBITAL AND 5,6-BENZOFLAVONE, Method: PREINCUBATION): inactive; negative
- mutagenic call (Strain/Indicator: TA1537, Metabolic Activation: NONE, Method: PREINCUBATION): inactive; negative
- mutagenic call (Strain/Indicator: TA1537, Metabolic Activation: RAT, LIVER, S-9, PHENOBARBITAL AND 5,6-BENZOFLAVONE, Method: PREINCUBATION): inactive; negative
- mutagenic call (Strain/Indicator: TA1538, Metabolic Activation: NONE, Method: PREINCUBATION): inactive; negative
- mutagenic call (Strain/Indicator: TA1538, Metabolic Activation: RAT, LIVER, S-9, PHENOBARBITAL AND 5,6-BENZOFLAVONE, Method: PREINCUBATION): inactive; negative
- mutagenic call [5]: active; positive
- mutagenic call [6]: active; positive

Compound: Cc1ccc2cc3ccccc3cc2c1
- mutagenic call (Strain/Indicator: TA97, Metabolic Activation: NONE, Method: STANDARD PLATE): inactive; negative
- mutagenic call (Strain/Indicator: TA97, Metabolic Activation: RAT, LIVER, S-9, PCB, Method: STANDARD PLATE): active; positive
- mutagenic call [7]: inactive; negative
- mutagenic call (Strain/Indicator: TA98, Metabolic Activation: RAT, LIVER, S-9, AROCLOR 1254, Method: STANDARD PLATE): inactive; negative
- mutagenic call (Strain/Indicator: TA98, Metabolic Activation: RAT, LIVER, S-9, PCB, Method: STANDARD PLATE): inactive; negative
- mutagenic call [8]: inactive; negative
- mutagenic call (Strain/Indicator: TA100, Metabolic Activation: RAT, LIVER, S-9, AROCLOR 1254, Method: STANDARD PLATE): inactive; negative
- mutagenic call (Strain/Indicator: TA100, Metabolic Activation: RAT, LIVER, S-9, PCB, Method: STANDARD PLATE): inactive; negative

Compound: COc1cc(OC)c2c(=O)c3cc(OC)ccc3oc2c1
- mutagenic call [1]: active; positive
- mutagenic call [3]: inactive; negative
- mutagenic call [4]: active; positive
- mutagenic call [5]: active; positive
- mutagenic call [6]: active; positive

Compound: O=CN(O)c1ccc(Oc2ccc(Cl)cc2Cl)cc1
- mutagenic call [8]: inactive; negative
- mutagenic call (Strain/Indicator: TA100, Metabolic Activation: RAT, LIVER, S-9, KANECLOR 500, Method: STANDARD PLATE): active; positive

Compound: Nc1nc(Cl)c2[nH]cnc2n1
- mutagenic call [8]: active; positive

Compound: O=[N+]([O-])c1ccc2c(ccc3cc([N+](=O)[O-])ccc32)c1
- mutagenic call (Strain/Indicator: TA98(1,8-DNP6), Metabolic Activation: NONE, Method: STANDARD PLATE): active; positive
- mutagenic call (Strain/Indicator: TA98(NR), Metabolic Activation: NONE, Method: STANDARD PLATE): active; positive
- mutagenic call [2]: active; positive
- mutagenic call [7]: active; positive
- mutagenic call (Strain/Indicator: TA98, Metabolic Activation: RAT, LIVER, S-9, PCB (10%), Method: PREINCUBATION): inactive; negative
- mutagenic call (Strain/Indicator: TA7001, Metabolic Activation: NONE, Method: PREINCUBATION): active; positive
- mutagenic call (Strain/Indicator: TA7002, Metabolic Activation: NONE, Method: PREINCUBATION): active; positive
- mutagenic call (Strain/Indicator: TA7003, Metabolic Activation: NONE, Method: PREINCUBATION): active; positive
- mutagenic call (Strain/Indicator: TA7004, Metabolic Activation: NONE, Method: PREINCUBATION): active; positive
- mutagenic call (Strain/Indicator: TA7005, Metabolic Activation: NONE, Method: PREINCUBATION): active; positive
- mutagenic call (Strain/Indicator: TA7006, Metabolic Activation: NONE, Method: PREINCUBATION): active; positive

Compound: CC1(C)CO1
- mutagenic call (Strain/Indicator: TA100, Metabolic Activation: NONE, Method: FLASK ASSAY): active; positive
- mutagenic call (Strain/Indicator: TA100, Metabolic Activation: NONE, Method: FLASK VAPORIZATION): active; positive
- mutagenic call (Strain/Indicator: TA100, Metabolic Activation: RAT, LIVER, S-9, AROCLOR 1254, Method: FLASK ASSAY): active; positive
- mutagenic call (Strain/Indicator: TA100, Metabolic Activation: RAT, LIVER, S-9, AROCLOR 1254, Method: FLASK VAPORIZATION): active; positive
- mutagenic call (Strain/Indicator: TA102, Metabolic Activation: NONE, Method: FLASK ASSAY): active; positive
- mutagenic call (Strain/Indicator: TA102, Metabolic Activation: RAT, LIVER, S-9, AROCLOR 1254, Method: FLASK ASSAY): active; positive
- mutagenic call (Strain/Indicator: TA1535, Metabolic Activation: NONE, Method: FLASK ASSAY): active; positive
- mutagenic call (Strain/Indicator: TA1535, Metabolic Activation: NONE, Method: FLASK VAPORIZATION): active; positive
- mutagenic call (Strain/Indicator: TA1535, Metabolic Activation: RAT, LIVER, S-9, AROCLOR 1254, Method: FLASK ASSAY): active; positive
- mutagenic call (Strain/Indicator: TA1535, Metabolic Activation: RAT, LIVER, S-9, AROCLOR 1254, Method: FLASK VAPORIZATION): active; positive
